Drawing on patent US20180338980A1, “AROMATIC SULFONAMIDE DERIVATIVES” (BAYER PHARMA AKTIENGESELLSCHAFT, priority 2015, published 2018), this text covers IC50 and Emax for 14 compounds.

Molecules are shown by their SMILES. Where “and” joins values, the source holds several entries; their conditions need not be identical. Equal entries are not always repeated.

For this assay, the target named is T1, P2X4 (Homo sapiens, UniProt Q99571).
T1 sequence (Q99571 1-388): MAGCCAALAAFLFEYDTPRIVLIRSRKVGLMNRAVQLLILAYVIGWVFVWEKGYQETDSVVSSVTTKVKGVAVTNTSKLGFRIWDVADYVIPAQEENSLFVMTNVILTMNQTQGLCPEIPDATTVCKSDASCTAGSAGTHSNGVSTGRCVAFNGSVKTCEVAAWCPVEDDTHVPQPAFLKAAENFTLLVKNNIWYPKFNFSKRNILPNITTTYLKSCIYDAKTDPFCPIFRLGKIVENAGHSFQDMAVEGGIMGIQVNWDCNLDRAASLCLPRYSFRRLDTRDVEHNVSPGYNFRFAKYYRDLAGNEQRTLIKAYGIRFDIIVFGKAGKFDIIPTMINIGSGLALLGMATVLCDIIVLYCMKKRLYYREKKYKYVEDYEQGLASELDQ
The experiment in a line: Assay B: human P2X4 receptor cell line, mitochondrial photina luminescence (agonist Bz-ATP at EC50). Particulars: HEK human P2X4 cell line, photina luminescence, agonist Bz-ATP at EC50, average; for Emax: read-out: human P2X4 Assay B avg Efficacy. Format: cell-based. Details: host or cells: HEK 293 (recombinant, constitutively expressing; with mitochondrial photina in Assay B). Summed up:
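Bz-ATP at its EC50 activates human P2X4 stably expressed in a cell line that also carries the calcium-sensitive photoprotein mitochondrial photina (coelenterazine cofactor). Light emitted on calcium influx is measured straight away in a luminometer. Reduced luminescence indicates antagonism.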

As usually defined, the IC50 is the concentration at which inhibition is half-maximal. `NS(=O)(=O)c1cc(NC(=O)Cc2ccccc2OCCO)ccc1Oc1cccc(Cl)c1` [Example 213, N-[4-(3-Chlorophenoxy)-3-sulfamoylphenyl]-2-[2-(2-hydroxyethoxy)phenyl]acetamide]: the IC50 was determined as 818 nM and the Emax was 61%.

As for `NS(=O)(=O)c1cc(NC(=O)Cc2ccccc2)ccc1OC1COC1` [Example 215, N-[4-(Oxetan-3-yloxy)-3-sulfamoylphenyl]-2-phenylacetamide], the IC50 was determined as 1510 nM and the Emax turned out to be 68%.

`NS(=O)(=O)c1cc(NC(=O)Cc2ccccc2Cl)ccc1OC1COC1` [Example 216, 2-(2-Chlorophenyl)-N-[4-(oxetan-3-yloxy)-3-sulfamoylphenyl]acetamide]: the IC50 was 3350 nM and the Emax is 45%.

With `NS(=O)(=O)c1cc(NC(=O)Cc2ccccc2)ccc1OC1CCCC1` [Example 217, N-[4-(Cyclopentyloxy)-3-sulfamoylphenyl]-2-phenylacetamide], the IC50 was 4030 nM and the Emax was 67%.

With `NS(=O)(=O)c1cc(NC(=O)Cc2ccccc2Cl)ccc1OC1CCCC1` [Example 218, 2-(2-Chlorophenyl)-N-[4-(cyclopentyloxy)-3-sulfamoylphenyl]acetamide], the IC50 was 248 nM and the Emax is 80%.

Regarding `CN1CCCC(Oc2ccc(NC(=O)Cc3ccccc3)cc2S(N)(=O)=O)C1` (stereo not shown) [Example 219, N-{4-[(1-Methylpiperidin-3-yl)oxy]-3-sulfamoylphenyl}-2-phenylacetamide], the IC50 is > 50000 nM and the Emax stood at 23%.

In the case of `CN1CCCC(Oc2ccc(NC(=O)Cc3ccccc3Cl)cc2S(N)(=O)=O)C1` (stereo not shown) [Example 220, 2-(2-Chlorophenyl)-N-{4-[(1-methylpiperidin-3-yl)oxy]-3-sulfamoylphenyl}acetamide], the IC50 came out at 3810 nM and the Emax was found to be 77%.

As to `CN1CCC(Oc2ccc(NC(=O)Cc3ccccc3)cc2S(N)(=O)=O)C1` (stereo not shown) [Example 221, N-{4-[(1-Methylpyrrolidin-3-yl)oxy]-3-sulfamoylphenyl}-2-phenylacetamide], the IC50 was > 50000 nM and the Emax was 30%.

For the compound `CN1CCC(Oc2ccc(NC(=O)Cc3ccccc3Cl)cc2S(N)(=O)=O)C1` (stereo not shown) [Example 222, 2-(2-Chlorophenyl)-N-{4-[(1-methylpyrrolidin-3-yl)oxy]-3-sulfamoylphenyl}acetamide], the IC50 was 8540 nM and 8060 nM and > 16000 nM; the Emax stood at 70%.

As for `NS(=O)(=O)c1cc(NC(=O)Cc2ccc(F)cc2)ccc1Oc1ccc(Cl)cc1` [Example 223, N-[4-(4-Chlorophenoxy)-3-sulfamoylphenyl]-2-(4-fluorophenyl)acetamide], the half-inhibitory concentration (IC50) was found to be 1850 nM and the Emax was found to be 82%.

Consider `N#Cc1ccccc1CC(=O)Nc1ccc(Oc2cccc(Cl)c2)c(S(N)(=O)=O)c1` [Example 225, N-[4-(3-Chlorophenoxy)-3-sulfamoylphenyl]-2-(2-cyanophenyl)acetamide], for which the IC50 was 192 nM and the Emax was determined as 98%.

Take `N#Cc1cccc(CC(=O)Nc2ccc(Oc3cccc(Cl)c3)c(S(N)(=O)=O)c2)c1` [Example 226, N-[4-(3-Chlorophenoxy)-3-sulfamoylphenyl]-2-(3-cyanophenyl)acetamide]: the IC50 is 491 nM and the Emax worked out at 75%.

As to `NS(=O)(=O)c1cc(NC(=O)Cc2ccc(C(F)(F)F)cc2)ccc1Oc1ccc(Cl)cc1` [Example 227, N-[4-(4-Chlorophenoxy)-3-sulfamoylphenyl]-2-[4-(trifluoromethyl)phenyl]acetamide], the IC50 worked out at 1770 nM and the Emax stood at 69%.

In the case of `NS(=O)(=O)c1cc(NC(=O)Cc2ccc(Cl)cc2)ccc1Oc1ccc(Cl)cc1` [Example 228, N-[4-(4-Chlorophenoxy)-3-sulfamoylphenyl]-2-(4-chlorophenyl)acetamide], the IC50 was 1590 nM and the Emax was found to be 58%.
